From PMC7769561, “Antileishmanial activity of synthetic analogs of the naturally occurring quinolone alkaloid N-methyl-8-methoxyflindersin” (PLoS ONE, 2020)
Values after ≈ are worked out from the molar mass of the structure shown. Values joined by “and” are separate entries in the source; they are usually repeats but may differ in a detail not shown here. Equal values may be shown once.

Experiments:
in vitro = details: human
Description: We isolated hMDMs from buffy coats donated by the Institute of Local Science (Biotechnology and Health Innovation, Bogotá, Colombia) and spun them in Lymphoprep density gradient medium (Stem-Cell, Vancouver, Canada).
Next, we added 100 μL of this culture to each quinoline alkaloid–like compound at a concentration of 200, 20, 2, 0.2, and 0.02 μg/mL. […] Cells treated with amphotericin B (Sigma-Aldrich) were used as cell apoptosis (positive) controls. Results were expressed as the medial cytotoxic concentration (CC50) using Prism GraphPad software for nonlinear regression analysis (https://www.graphpad.com/scientific-software/prism/).
(§1) All assays required at least three independently duplicated experiments. We determined cytotoxicity against hMDMs and effectivity in L. (V) panamensis promastigotes according to each treatment’s mortality (compound and concentration) using Eq 1, where the control mean fluorescence intensity (MFI) was 100% viability: Validityinhibition(%)=100−[MIFexposedcells/MIFunexposedcells×100] (1)
(§2) We used GraphPad Prism nonlinear regression analysis to estimate the percentage mortality with regard to CC50 and EC50. […] The antileishmanial activity with regard to promastigotes was classified as active according to Eq 2: Active=EC50<[LC50/2], (2) where LC50 is the median lethal concentration. We also used GraphPad Prism nonlinear regression analysis to determine the intracellular antileishmanial activity (concentration vs. response), depending on the infection (number of infected cells) and parasite burden (number of parasites/cell) obtained in experimental conditions. Parasite inhibition was estimated using Eq 3, where the plate MFI is 100% parasites: Infectioninhibition(%)=100−[(MIFexposedparasites/MIFunexposedparasites×100)] (3)

[1] = tested on: L. (V.) panamensis promastigotes; assay: Antileishmanial activity in L. (V.) panamensis promastigotes (resazurin, 72 h); assay type: cell-based, Leishmania (Viannia) panamensis; details: L. (V.) panamensis promastigotes, ± SD; for EC50: read-out: EC50 Intracellular promastigotes (converted)
Description: They were treated with quinoline alkaloid–like compounds at a concentration of 100, 10, 1, 0.1, and 0.01 μg/mL for 72 h at 26°C. Next, we determined antileishmanial activity using the resazurin method (Sigma-Aldrich). Promastigotes treated with amphotericin B (Sigma-Aldrich) and pentamidine (Sanofi-Aventis, Gentilly, France) were used as parasite death (positive) controls. Results were expressed as the medial effective concentration (EC50) using Prism GraphPad software for nonlinear regression analysis (https://www.graphpad.com/scientific-software/prism/).
as §1, §2

[2] = tested on: L. (V.) panamensis intracellular amastigotes; assay: Antileishmanial activity in L. (V.) panamensis intracellular amastigotes in hMDMs; assay type: cell-based, Leishmania (Viannia) panamensis; details: for SI (selectivity index = CC50/EC50): CC50 hMDMs / EC50 intracellular amastigotes
Description: Next, 100 μL of the suspension was cultured in 96-well plates and infected with L. (V.) panamensis promastigotes (HMOM/COL/87/UA-140) at a 10:1 parasite:cell ratio. We incubated the plates in a 5% CO2 atmosphere for 4 h at 35°C. After incubation, we removed noninternalized parasites by washing the cells with 0.9% NaCl saline solution (Baxter International, Deerfield, IL, USA). The cells were incubated again for 24 h and then treated with each quinoline alkaloid–like compound at a concentration of 100, 10, 1, 0.1, and 0.01 μg/mL in a 5% CO2 atmosphere for 72 h at 36°C. Next, we quantified the percentage of infected cells using fluorescence microscopy, as previously described by Pérez-Cordero in 2011 [23], and quantified the parasite load (amount of intracellular promastigotes and amastigotes per cell) using Giemsa staining and flow cytometry (Cytomics FC 500 MPL; Beckman Coulter, Brea, CA, USA). […] Results were expressed as EC50 using Prism GraphPad software’s probit nonlinear regression analysis (https://www.graphpad.com/scientific-software/prism/).
as §2
The percentage inhibition was used to calculate EC50 by nonlinear regression analysis (fluorescence microscopy), while the parasite burden was evaluated as the percentage of intracellular promastigotes and amastigotes in 100 infected cells (Giemsa staining). […] The selectivity index (SI) was estimated using the following formula: SI=CC50/EC50

[3] = tested on: L. (V.) panamensis intracellular amastigotes; assay: as above; assay type: cell-based, Leishmania (Viannia) panamensis; details: 72 h, ± SD
hMDMs = assay: Apoptosis in noninfected and L. (V.) panamensis-infected hMDMs (annexin V/7AAD flow cytometry); assay type: cell-based, human; details: compound at EC50, 72 h
Description: Next, the cells were fixed with 4% paraformaldehyde for evaluating dead cells using a live/dead cell viability kit (Beckton, Dickinson and Company, Franklin Lakes, NJ, USA). hMDMs cultured without any treatment were used as viability controls, while those treated with 0.01% H2O2, 10 μg/mL of lipopolysaccharide (LPS; Sigma-Aldrich), and 1% dimethyl sulfoxide (DMSO) were used as cell mortality (positive) controls. Apoptotic and necrotic cells were quantified using flow cytometry (FACS Canto II; Becton, Dickinson and Company).

[4] = tested on: L. (V.) panamensis-infected hMDMs; assay: ROS generation in L. (V.) panamensis-infected hMDMs (H2DCFDA flow cytometry); assay type: cell-based, human; details: compound at EC50, 4, 24, 48 and 72 h
Description: (§3) Next, we detached the cells with ethylenediaminetetraacetic acid (EDTA)/trypsin (Lonza, MD, USA) and 2',7'-dichlorodihydrofluorescein diacetate (H2DCFDA) tagged on a 5 μM fluorescent tube (Sigma-Aldrich) in order to identify intracellular ROS and/or 4-amino-5-methylamino-2′,7′-difluorofluorescein (DAF-FM; Sigma-Aldrich) for NO production in a 5% CO2 atmosphere for 45 min at 37°C. ROS and NO were quantified using flow cytometry (FACS Canto II) at a wavelength of 480 nm. Untreated cells were used as negative controls, while cells treated with 0.0001% H2O2 and 1 μM phorbol myristate acetate were used as ROS production (positive) controls. LPS (10 ng/mL) and phytohemagglutinin (PHA-M) (10 μL/mL) (Invitrogen) were used as positive controls for NO production.

[5] = tested on: L. (V.) panamensis-infected hMDMs; assay: NO production in L. (V.) panamensis-infected hMDMs (DAF-FM flow cytometry); assay type: cell-based, human
Description: as §3

[6] = tested on: L. (V.) panamensis-infected hMDMs; assay: Transmission electron microscopy of L. (V.) panamensis-infected hMDMs; assay type: cell-based, human; details: compound at EC50, 72 h, TEM; for Cell membrane (ultrastructural modification grade): key: -: no alteration/absence; +: low alteration/low presence; ++: alteration/moderate presence; +++: serious disturbance/abundant presence; for LB (lipid bodies, grade): key: -: no alteration/absence; +: low alteration/low presence; ++: alteration/moderate presence; +++: serious disturbance/abundant presence; for Mitochondria (ultrastructural modification grade): key: -: no alteration/absence; +: low alteration/low presence; ++: alteration/moderate presence; +++: serious disturbance/abundant presence; for Nucleus (ultrastructural modification grade): key: -: no alteration/absence; +: low alteration/low presence; ++: alteration/moderate presence; +++: serious disturbance/abundant presence
From the text: (§4) This procedure involved including fresh resin and 100–200-nm-wide ultrafine cuts observed by TEM (100X–10.000X) (HITACHI-HU-12; Hitachi, Tokyo, Japan).

[7] = tested on: L. (V.) panamensis intracellular amastigotes; assay: Transmission electron microscopy of L. (V.) panamensis intracellular amastigotes in hMDMs; assay type: cell-based, Leishmania (Viannia) panamensis; design: Nucleus (ultrastructural alteration grade) / Vacuoles (ultrastructural alteration grade): key: -: no alteration/absence; +: low alteration/low presence; ++: alteration/moderate presence; +++: serious disturbance/abundant presence; details: compound at EC50, 72 h, TEM
From the text: as §4

[8] = amastigotes in hMDMs, 72 h, ± SD

C[C@@H]1[C@H](O)[C@@H](C)/C=C/C=C/C=C/C=C/C=C/C=C/C=C/[C@H](O[C@@H]2O[C@H](C)[C@@H](O)[C@H](N)[C@@H]2O)C[C@@H]2O[C@](O)(C[C@@H](O)C[C@@H](O)[C@H](O)CC[C@@H](O)C[C@@H](O)CC(=O)O[C@H]1C)C[C@H](O)[C@H]2C(=O)O [AMB, amphotericin B, reference compound]
CC50 at 72 h (in vitro): 4.5 µg/mL and 4.9 µM | EC50 [1]: 0.3 µg/mL and 300 nM | SI (selectivity index = CC50/EC50) [2]: 11.25 | EC50 [3]: 0.4 µg/mL and 400 nM

COc1ccc2c3c(c(=O)n(C)c2c1)C=CC(C)(C)O3 [Compound 1, N-methyl-8-methoxyflindersin]
EC50 Intracellular promastigotes [1]: 9.9 ± 3 µg/mL (≈ 36.5 µM) | EC50 [1]: 36.5 µM | SI (selectivity index = CC50/EC50) [2]: 5.87 | EC50 [2, 8]: 29.2 µM | EC50 Intracellular amastigotes [2, 8]: 7.4 ± 1.95 µg/mL (≈ 27.3 µM) | Antileishmanial activity class ([2]; intracellular amastigotes, class by EC50): high (high if EC50 < 25 μg/mL) | Percentage of apoptotic cells (annexin V+ 7AAD–, Q3) (hMDMs; L. (V.) panamensis-infected hMDMs): 41.3% | Percentage of apoptotic cells (annexin V+ 7AAD–, Q3) (hMDMs; noninfected (basal) hMDMs): 20.2% | ROS generation compared to infected control cells [4]: no significant variations | NO production compared to untreated infected hMDMs ([5]; compound at EC50, 24, 48 and 72 h): increase in NO production | NO production ([5]; compound at EC50, 72 h posttreatment): increase in NO production | Cell membrane (ultrastructural modification grade) [6]: - | LB (lipid bodies, grade) [6]: - | Mitochondria (ultrastructural modification grade) [6]: + | Nucleus (ultrastructural modification grade) [6]: - | PV (description) [6]: Individuals, attached to the parasite | PV (parasitophorous vacuoles, grade) [6]: + | Parasites (grade) [6]: + | Vacuoles (description) [6]: Double membrane (autophagic-digestives) | Vacuoles (ultrastructural modification grade) [6]: ++ | Cell membrane (description) [7]: Integrity damage in membrane | Cell membrane (ultrastructural alteration grade) [7]: +++ | Flagellum (flagellar/axonema pocket) (grade) [7]: - | LB (lipid bodies, grade) [7]: - | Mitochondria/Kinetoplasts (ultrastructural alteration grade) [7]: - | Nucleus (description) [7]: Nuclear membrane damage | Nucleus (ultrastructural alteration grade) [7]: +++ | PV (description) [7]: Individuals attached to the parasite | PV (parasitophorous vacuoles, grade) [7]: + | Vacuoles (description) [7]: Electrodense acidocalcisome type | Vacuoles (ultrastructural alteration grade) [7]: ++

Cc1cc(=O)[nH]c2ccccc12 [Compound 4, 4-methyl-2-(1H)-quinolinone]
CC50 at 72 h (in vitro): 95.2 µg/mL and 391 µM | EC50 [1]: 62.3 µg/mL and 256 µM | SI (selectivity index = CC50/EC50) [2]: 1.66 | EC50 [3]: 57.1 µg/mL and 256 µM
